For the experiment, the target named is T1, F-ATP synthase (subunit γ, site proposed by docking) (Mycolicibacterium smegmatis, UniProt A0R201).
T1 construct: gene atpG; Recombinant M. smegmatis WT F-ATP synthase, purified and reconstituted into proteoliposomes; with other F-ATP synthase subunits (α3:β3:γ:δ:ε:a:b:b’:c9), in particular subunit α
Put plainly: ATP synthesis by reconstituted recombinant MsF-ATP synthase, continuous luciferase assay (also IMV ATP synthesis, IC50 […]). The experiment is classed as biochemical.

T1 sequence (A0R201 2-307): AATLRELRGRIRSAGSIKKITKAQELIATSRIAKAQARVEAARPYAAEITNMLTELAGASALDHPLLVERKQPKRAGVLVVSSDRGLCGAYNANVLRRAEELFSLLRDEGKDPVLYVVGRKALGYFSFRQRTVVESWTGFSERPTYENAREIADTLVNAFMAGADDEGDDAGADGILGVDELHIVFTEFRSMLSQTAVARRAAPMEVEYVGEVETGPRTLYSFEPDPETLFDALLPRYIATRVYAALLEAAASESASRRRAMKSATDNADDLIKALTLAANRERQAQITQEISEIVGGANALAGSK

On to `COc1cc(NC(=O)C2=C(C)OCCS2)c(Cl)cc1C(=O)NCCCN1CCCC1=O` [AlMF1, N-(2-chloro-5-methoxy-4-((3-(2-oxopyrrolidin-1-yl)propyl)carbamoyl)phenyl)-2-methyl-5,6-dihydro-1,4-oxathiine-3-carboxamide], for which the inhibition at 50 µM was determined as 71%.

The record behind these values is publication PMC8698299, “Targeting Mycobacterial F-ATP Synthase C-Terminal α Subunit Interaction Motif on Rotary Subunit γ” (Antibiotics, 2021).
